In general, IC50 refers to the concentration that inhibits the measured activity by half.

The source of these data is PMC5398096 (Bioorganic & medicinal chemistry letters, 2017).

Read-outs that look alike come from different tables or passages of the source.

The subject of series [1] is A431 cancer cells. To be noted: read-out: A431 Cytotoxicity IC50; previously evaluated lead compounds; cited from earlier work.
Series [2] deals with T1, human DHFR (Homo sapiens, UniProt P00374).
T1 sequence (P00374 1-187): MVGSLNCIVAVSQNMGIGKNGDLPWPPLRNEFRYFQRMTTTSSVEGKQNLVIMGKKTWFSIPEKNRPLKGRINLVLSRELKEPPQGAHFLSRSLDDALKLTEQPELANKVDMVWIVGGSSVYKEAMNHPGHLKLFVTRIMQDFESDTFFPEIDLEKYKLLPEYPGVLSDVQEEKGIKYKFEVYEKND
To be noted: number in parentheses; at the concentration stated in the same cell (μM); cited from earlier work.

Series [3] concerns the target T2, E. coli DHFR (Escherichia coli, UniProt P0ABQ4). To be noted: number in parentheses; at the concentration stated in the same cell (μM); cited from earlier work.
Series [4] concerns COLO-205 xenograft. As to conditions: COLO-205 xenograft mouse model, cited from earlier work.
Series [5] concerns the target VEGFR-2 (Flk-1) (Homo sapiens, UniProt P35968). Kind of series: VEGFR-2 kinase inhibition, phosphotyrosine ELISA in whole cells. The format is cell-based. To be noted: for VEGFR-2 assay: fold less potent than semaxanib: relative to standard semaxanib. For orientation: An ELISA detects its analyte on a solid surface through an enzyme-linked reagent.
Series [6] deals with EGFR (Homo sapiens, UniProt P00533). Briefly: EGFR kinase inhibition, phosphotyrosine ELISA in whole cells. It counts as cell-based. As to conditions: relative to standard 24.
Chain of EGFR (P00533 25-1210): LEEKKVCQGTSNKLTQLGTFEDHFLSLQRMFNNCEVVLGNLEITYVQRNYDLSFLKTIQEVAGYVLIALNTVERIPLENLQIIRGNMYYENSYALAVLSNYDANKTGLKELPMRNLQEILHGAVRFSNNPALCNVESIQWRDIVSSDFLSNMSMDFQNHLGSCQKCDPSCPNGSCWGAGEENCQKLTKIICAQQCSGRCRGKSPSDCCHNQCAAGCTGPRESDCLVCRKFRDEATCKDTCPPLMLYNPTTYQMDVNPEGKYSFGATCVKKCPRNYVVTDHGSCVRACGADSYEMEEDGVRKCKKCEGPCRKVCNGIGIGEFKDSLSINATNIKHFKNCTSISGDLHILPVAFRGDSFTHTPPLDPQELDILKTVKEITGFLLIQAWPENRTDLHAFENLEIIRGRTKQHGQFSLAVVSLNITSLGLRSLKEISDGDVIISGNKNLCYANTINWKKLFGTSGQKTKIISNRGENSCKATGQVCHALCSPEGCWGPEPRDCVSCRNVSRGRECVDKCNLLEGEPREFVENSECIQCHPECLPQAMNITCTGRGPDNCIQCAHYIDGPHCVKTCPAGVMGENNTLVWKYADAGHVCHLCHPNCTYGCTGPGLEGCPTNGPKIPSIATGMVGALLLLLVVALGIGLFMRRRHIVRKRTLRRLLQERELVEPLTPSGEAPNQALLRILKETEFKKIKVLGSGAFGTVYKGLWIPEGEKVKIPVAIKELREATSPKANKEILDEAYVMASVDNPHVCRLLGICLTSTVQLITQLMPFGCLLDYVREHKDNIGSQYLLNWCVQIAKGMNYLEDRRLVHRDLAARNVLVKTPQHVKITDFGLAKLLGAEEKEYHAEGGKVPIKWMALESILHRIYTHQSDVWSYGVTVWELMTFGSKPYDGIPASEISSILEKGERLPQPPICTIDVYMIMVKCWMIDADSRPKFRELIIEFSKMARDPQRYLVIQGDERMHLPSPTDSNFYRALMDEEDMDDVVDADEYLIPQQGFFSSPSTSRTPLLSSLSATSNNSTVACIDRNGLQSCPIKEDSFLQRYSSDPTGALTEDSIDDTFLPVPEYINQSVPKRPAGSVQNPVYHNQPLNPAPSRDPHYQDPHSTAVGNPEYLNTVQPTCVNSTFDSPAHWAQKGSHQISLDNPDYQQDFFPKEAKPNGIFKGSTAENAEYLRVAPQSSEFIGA
The target in series [7] is PDGFR-β (Homo sapiens, UniProt P09619). Kind of series: PDGFR-β kinase inhibition, phosphotyrosine ELISA in whole cells. The format is cell-based. As to conditions: for PDGFR-β assay: fold less active than DMBI: relative to standard DMBI; for PDGFR-β assay: activity in words: even at 200 micromolar concentrations.
Chain of PDGFR-β (P09619 33-1106): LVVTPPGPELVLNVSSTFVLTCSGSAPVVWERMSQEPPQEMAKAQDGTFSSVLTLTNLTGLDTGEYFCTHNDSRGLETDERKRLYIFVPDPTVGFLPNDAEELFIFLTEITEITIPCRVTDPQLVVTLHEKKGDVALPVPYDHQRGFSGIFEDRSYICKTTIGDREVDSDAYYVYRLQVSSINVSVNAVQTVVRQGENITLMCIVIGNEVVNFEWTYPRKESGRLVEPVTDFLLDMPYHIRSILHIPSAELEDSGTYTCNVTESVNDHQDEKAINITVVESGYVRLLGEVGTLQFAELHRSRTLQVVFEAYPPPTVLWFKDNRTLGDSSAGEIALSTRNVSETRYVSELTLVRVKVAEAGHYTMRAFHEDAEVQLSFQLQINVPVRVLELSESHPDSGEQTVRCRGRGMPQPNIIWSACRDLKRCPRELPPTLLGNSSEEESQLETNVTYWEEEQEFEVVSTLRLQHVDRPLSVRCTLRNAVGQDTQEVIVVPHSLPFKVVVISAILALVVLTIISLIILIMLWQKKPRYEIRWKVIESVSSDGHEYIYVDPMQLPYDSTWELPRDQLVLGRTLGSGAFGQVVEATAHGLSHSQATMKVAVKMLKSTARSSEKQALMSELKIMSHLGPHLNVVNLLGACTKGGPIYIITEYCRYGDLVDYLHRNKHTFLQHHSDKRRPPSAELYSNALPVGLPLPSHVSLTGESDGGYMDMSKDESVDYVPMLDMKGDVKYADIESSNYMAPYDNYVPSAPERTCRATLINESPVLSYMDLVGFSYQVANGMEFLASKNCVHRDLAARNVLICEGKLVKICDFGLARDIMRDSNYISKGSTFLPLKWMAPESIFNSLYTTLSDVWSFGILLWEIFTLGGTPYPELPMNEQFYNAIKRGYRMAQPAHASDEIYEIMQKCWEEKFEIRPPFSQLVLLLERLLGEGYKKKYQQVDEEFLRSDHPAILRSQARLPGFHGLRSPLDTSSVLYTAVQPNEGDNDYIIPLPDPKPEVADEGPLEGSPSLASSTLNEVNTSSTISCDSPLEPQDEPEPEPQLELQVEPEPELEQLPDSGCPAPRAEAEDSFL
For series [8], the system named is A431 cancer cells. Briefly: A431 cytotoxicity. As to conditions: for A431 cytotoxicity assay: fold less active than cisplatin: relative to standard cisplatin. The format is cell-based, human.
In series [9] the target is E. coli TS (Escherichia coli, UniProt P0A884). Briefly: Thymidylate synthase. The format is biochemical. As to conditions: number in parentheses; at the concentration stated in the same cell (μM).
Chain of E. coli TS (P0A884 whole entry): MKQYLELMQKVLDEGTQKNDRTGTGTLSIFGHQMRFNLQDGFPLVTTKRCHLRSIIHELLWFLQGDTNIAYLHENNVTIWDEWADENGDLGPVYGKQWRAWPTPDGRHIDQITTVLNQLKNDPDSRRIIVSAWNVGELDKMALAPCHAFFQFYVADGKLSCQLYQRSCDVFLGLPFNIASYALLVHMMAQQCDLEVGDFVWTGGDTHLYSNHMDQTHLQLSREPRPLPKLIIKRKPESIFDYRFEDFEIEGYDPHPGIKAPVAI
The target of series [10] is human TS (Homo sapiens, UniProt P04818). Kind of series: Thymidylate synthase. It counts as biochemical. To be noted: relative to raltitrexed (RTX).
Chain of human TS (P04818 whole entry): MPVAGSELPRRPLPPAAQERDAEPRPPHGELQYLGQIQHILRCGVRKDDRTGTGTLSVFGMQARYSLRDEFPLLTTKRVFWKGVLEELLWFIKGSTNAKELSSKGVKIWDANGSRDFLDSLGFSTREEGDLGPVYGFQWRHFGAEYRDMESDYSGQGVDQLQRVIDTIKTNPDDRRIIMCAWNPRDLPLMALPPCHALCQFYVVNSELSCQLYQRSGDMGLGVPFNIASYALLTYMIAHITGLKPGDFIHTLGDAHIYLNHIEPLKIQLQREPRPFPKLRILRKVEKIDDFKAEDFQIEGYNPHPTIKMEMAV
Series [11] has as its target T2, E. coli DHFR. Briefly: Dihydrofolate reductase. It counts as biochemical. To be noted: number in parentheses; at the concentration stated in the same cell (μM).

Chain of VEGFR-2 (Flk-1) (P35968 20-1356): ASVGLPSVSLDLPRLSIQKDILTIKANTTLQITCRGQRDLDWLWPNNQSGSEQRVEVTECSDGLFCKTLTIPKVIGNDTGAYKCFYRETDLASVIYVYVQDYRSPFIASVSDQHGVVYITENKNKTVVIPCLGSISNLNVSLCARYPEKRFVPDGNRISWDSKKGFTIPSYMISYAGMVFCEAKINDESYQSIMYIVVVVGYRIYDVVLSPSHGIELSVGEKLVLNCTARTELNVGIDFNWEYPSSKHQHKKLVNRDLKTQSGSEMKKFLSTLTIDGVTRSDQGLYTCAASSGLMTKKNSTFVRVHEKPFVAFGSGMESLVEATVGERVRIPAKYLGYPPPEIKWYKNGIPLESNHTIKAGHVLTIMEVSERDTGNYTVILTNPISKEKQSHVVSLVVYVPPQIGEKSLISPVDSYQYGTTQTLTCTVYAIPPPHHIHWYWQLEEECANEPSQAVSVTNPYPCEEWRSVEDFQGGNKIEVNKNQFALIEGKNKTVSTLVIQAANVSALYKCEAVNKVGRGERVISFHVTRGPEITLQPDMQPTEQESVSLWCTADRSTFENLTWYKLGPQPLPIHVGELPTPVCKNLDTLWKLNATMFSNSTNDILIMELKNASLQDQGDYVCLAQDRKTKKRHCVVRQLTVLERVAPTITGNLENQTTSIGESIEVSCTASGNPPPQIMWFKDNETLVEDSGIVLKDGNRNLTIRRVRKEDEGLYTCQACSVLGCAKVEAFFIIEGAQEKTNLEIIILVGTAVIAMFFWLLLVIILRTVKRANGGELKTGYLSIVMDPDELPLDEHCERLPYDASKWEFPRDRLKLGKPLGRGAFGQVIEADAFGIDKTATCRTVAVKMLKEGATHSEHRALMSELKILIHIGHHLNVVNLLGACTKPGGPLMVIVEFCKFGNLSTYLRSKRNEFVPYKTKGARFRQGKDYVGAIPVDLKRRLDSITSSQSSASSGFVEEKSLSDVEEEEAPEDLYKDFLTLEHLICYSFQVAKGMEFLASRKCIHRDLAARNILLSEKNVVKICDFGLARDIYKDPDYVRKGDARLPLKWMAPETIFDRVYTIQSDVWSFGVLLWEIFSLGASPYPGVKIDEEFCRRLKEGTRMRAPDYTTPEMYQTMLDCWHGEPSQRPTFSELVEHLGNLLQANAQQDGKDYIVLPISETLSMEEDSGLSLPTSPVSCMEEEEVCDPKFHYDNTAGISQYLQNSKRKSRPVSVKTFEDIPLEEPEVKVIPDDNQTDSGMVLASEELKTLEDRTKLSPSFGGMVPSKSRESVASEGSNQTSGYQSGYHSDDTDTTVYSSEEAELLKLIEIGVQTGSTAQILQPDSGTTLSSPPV
T2 sequence (P0ABQ4 whole entry): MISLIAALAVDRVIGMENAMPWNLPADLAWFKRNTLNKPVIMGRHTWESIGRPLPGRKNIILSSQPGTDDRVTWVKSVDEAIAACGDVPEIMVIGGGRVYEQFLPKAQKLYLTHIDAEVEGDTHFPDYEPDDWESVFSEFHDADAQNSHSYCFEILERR

With `Nc1nc(N)c2c(n1)[nH]c1cccc(Sc3ccccc3)c12` [Compound 1], the half-maximal inhibitory concentration (IC50) in [1] is 49.2 ± 4.7 µM. Moreover, the “DHFR Human, percent inhibition at the stated concentration” value in [2] is reported as 17%. Moreover, in series [3], the “DHFR E. coli, percent inhibition at the stated concentration” value (shortened to “DHFR E. coli, percent inhibition”) is 35%. The “tumor growth inhibition (TGI)” value in series [4] (35 mg/kg) is given as 76%. For the same molecule, in series [4] (compared with DMBI and control), the liver metastases result is “significantly decreased” and the tumor blood vessels entry is listed as “significantly decreased”.
On to `Cc1ccc(Sc2cccc3[nH]c4nc(N)nc(N)c4c23)cc1` [Compound 2], for which the IC50 in series [1] is 14.1 ± 2 µM. For the same molecule, the “DHFR Human, percent inhibition at the stated concentration” value in series [2] is recorded as 7%. Further, in [3], the “DHFR E. coli, percent inhibition” value is listed as 27%.
Consider `Nc1nc(N)c2c(n1)[nH]c1cccc(Sc3ccc4ccccc4c3)c12` [Compound 3], for which the “VEGFR-2 assay: fold less potent than semaxanib” value in [5] turned out to be 13 fold. Further, the “EGFR assay: fold less active than standard 24” value in series [6] is 100 fold. Moreover, the “PDGFR-β assay: fold less active than DMBI” value in [7] is recorded as 24 fold. Further, in series [8], the “A431 cytotoxicity assay: fold less active than cisplatin” value was “about 4 fold”. Besides, the “TS E. coli, percent inhibition at the stated concentration” value in series [9] worked out at 0%.
`Nc1nc(N)c2c(n1)[nH]c1cccc(Sc3cccc4ccccc34)c12` [Compound 4]: the “VEGFR-2 assay: fold less potent than semaxanib” value in series [5] came to 16 fold. The “EGFR assay: fold less active than standard 24” value in series [6] is reported as 835 fold. Besides, in series [7], the “PDGFR-β assay: fold less active than DMBI” value is given as “about 16 fold”. Besides, in series [8] (even at 200 micromolar concentration), the “A431 cytotoxicity assay: activity in words” value was “inactive”. The “hTS assay: fold less active than RTX” value in series [10] amounted to 6 fold.
As for `COc1ccc(OC)c(Sc2cccc3[nH]c4nc(N)nc(N)c4c23)c1` [Compound 5], in series [5], the “VEGFR-2 assay: fold less potent than semaxanib” value is “equipotent”. In addition, the “EGFR assay: fold less active than standard 24” value in series [6] amounted to 22 fold. The “PDGFR-β assay: activity in words” value in series [7] was “inactive”. Moreover, the “A431 cytotoxicity assay: fold less active than cisplatin” value in series [8] is “about 4 fold”. In addition, the “hTS assay: fold less active than RTX” value in series [10] is 3 fold. Also, in [11], the “DHFR E. coli, percent inhibition” value is 0%.
On to `COc1ccc(Sc2cccc3[nH]c4nc(N)nc(N)c4c23)cc1` [Compound 6], for which the “VEGFR-2 assay: fold less potent than semaxanib” value in series [5] came to 15 fold. Besides, in series [6], the “EGFR assay: fold less active than standard 24” value is reported as “about 100 fold”. Further, the “PDGFR-β assay: fold less active than DMBI” value in [7] was “about 16 fold”. Moreover, in [8], the “A431 cytotoxicity assay: fold less active than cisplatin” value is recorded as “about 6 fold”. Also, the “TS E. coli, percent inhibition at the stated concentration” value in series [9] amounted to 0%.
For the molecule `Nc1nc(N)c2c(n1)[nH]c1cccc(Sc3ccc(Cl)cc3)c12` [Compound 7], the “VEGFR-2 assay: activity in words” value in series [5] is “inactive”. Further, the “EGFR assay: fold less active than standard 24” value in [6] was determined as 40 fold. Moreover, the “PDGFR-β assay: activity in words” value in series [7] was “inactive”. In addition, in series [8], the “A431 cytotoxicity assay: fold less active than cisplatin” value is “equipotent”. Moreover, the “hTS assay: fold more potent than RTX” value in series [10] is reported as “equipotent”. In series [11], the “DHFR E. coli, percent inhibition” value came out at 0%.
